Results: patent EP4653007A1, “NOVEL MIXTURE OF ACTIVE INGREDIENTS, COMPOSITIONS CONTAINING THEM, AND THEIR USE AGAINST ALLERGY AND/OR INFLAMMATION” (Global Pharmacies Partner S.R.L. in Forma Abbreviata G.P.P. …, priority 2024, dated 2025)

How the values were obtained:
RBL-2H3 cells = experiment: evaluation of degranulation (β-hexosaminidase release) in sensitized/stimulated RBL-2H3 cells; assay type: cell-based, rat; conditions: positive control 20 µM
Experimental: To evaluate the efficacy of a mixture M according to the invention, the following in vitro study was conducted. The antiallergic activity of the tested sample of mixture M was evaluated by measuring its ability to prevent degranulation processes in a rat leukemia cell line (RBL-2H3), widely used as a model simulating mast cells in immunological and allergological studies.
(§1) The RBL-2H3 cells were first sensitized and then stimulated to induce degranulation.
The test was conducted on RBL-2H3 cells grown in DMEM (Dulbecco's modified Eagle medium) containing 10% fetal bovine serum (FBS) and 1% antibiotics (penicillin and streptomycin) and incubated in standard culture conditions (37°C, 5% CO2). RBL-2H3 cells are widely used in allergy and immunology research, as, like mast cells, they express FCεRI and, following cross-linking between IgE bound to FCεRI and allergens, they undergo degranulation. […]
The medium was then recovered and separated from the cells and incubated with 4-nitrophenyl-N-acetyl-β-D-glucosamide. The reaction was stopped with carbonate buffer and the absorbance was measured by spectrophotometric reading at 405 nm. Degranulation was calculated as the percentage of β-hexosaminidase relative to non-sensitized (NS) cells as follows: Degranulation (%) = (ODX)/(ODNS)⋅100 [formula] […]

TNFα = TNFα dosage by ELISA in supernatant of sensitized/stimulated RBL-2H3 cells; assay type: cell-based, rat; conditions: positive control 20 µM
Experimental: The anti-inflammatory action was instead evaluated, always in the same cell line, by measuring the ability of the sample to inhibit the release of tumor necrosis factor alpha (TNFα).
as §1
The test was conducted on RBL-2H3 cells grown in DMEM (Dulbecco's modified Eagle medium) containing 10% fetal bovine serum (FBS) and 1% antibiotics (penicillin and streptomycin) and incubated in standard culture conditions (37°C, 5% CO2). RBL-2H3 cells are widely used in allergy and immunology research, as, like mast cells, they express FCεRI and, following cross-linking between IgE bound to FCεRI and allergens, they undergo degranulation. In this way, therefore, they simulate the behavior of mast cells and basophils in their response to an immunological stimulus.
The supernatant recovered from the cells was also used for the dosage of TNFα performed by ELISA (Enzyme-Linked Immunosorbent Assay), a very widespread biochemical technique used for the quantification of proteins and peptides. In an ELISA assay, a specific […] for TNFα is immobilized on a solid surface (the bottom of a well) to which the assay medium is added. Detection is done by means of a biotinylated secondary antibody and then reacted with streptavidin-HRP. The colorimetric reaction is proportional to the amount of TNFα present. The results are read by spectrophotometer at 450 nm. The values obtained were then interpolated into a standard curve of TNFα.
The absorbance (optical density, OD) measured at 450 nm is directly proportional to the amount of TNFα produced by the tissues. To calculate the concentrations of TNFα, the OD values obtained were interpolated into a standard curve of TNFα. The percentages were calculated with respect to the non-sensitized and non-stimulated cells (NS). The values are expressed as means ± standard deviation. Statistical processing of the data was performed by Student's t-test. Values of p<0.05 are considered significant. […]

## C=C1CC[C@H]2C(=C)CC[C@H]3C(=C)C(=O)O[C@@H]3[C@@H]12 [PC, Dehydrocostolactone]
RBL-2H3 cells; RBL-2H3, anti-DNP IgE / DNP-HSA
  β-hexosaminidase (% vs NS): 244.8%
RBL-2H3 cells; reduction in degranulation
  protection (% vs NC): 80.8%
TNFα
  TNFα (% vs NS): 183.4%
TNFα; RBL-2H3 supernatant
  TNFα: 200.3 pg/mL
TNFα; reduction in TNFα release
  protezione (% vs NC): 19.5%
